# In patent US20110173718A1, “HERBICIDE TOLERANT PLANTS” (SYNGENTA CROP PROTECTION, INC., priority 2008, published 2011):
# Assays:
# weeds [1] = test: Glasshouse weed control, HST inhibitors alone and with A22, post-emergence; type: in vivo; details: 14 DAT, single replicate; for pest or weed control at 15.625 g/ha / pest or weed control at 62.5 g/ha / pest or weed control at 250 g/ha: 336 h, read-out: % control score, Obs
# In short: (§1)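 Weeds grown in glasshouse trays (24-27 C day, 18-21 C night, ~15 h photoperiod) and track-sprayed in 0.2% X77 at […], pre-emergence or post-emergence at about 7-12 d. HPPD inhibitor A22 applied at 2 g/ha alone or mixed with HST herbicides. Damage scored 0–100% at 14 DAT; synergy calculated by Colby formula.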
# weeds [2] = test: Glasshouse weed control, HST inhibitors alone and with A22, pre-emergence; type: in vivo; details: 14 DAT; for pest or weed control at 15.625 g/ha / pest or weed control at 62.5 g/ha / pest or weed control at 250 g/ha: 336 h
# In short: as §1
# Arabidopsis HST = target: T1, Arabidopsis HST (Arabidopsis thaliana, UniProt Q1ACB3); test: HST total extraction (non TLC) assay, recombinant Arabidopsis HST from insect cells; type: biochemical
# T1 construct: GST (factor Xa cleavage site) (N); made in house; host or cells: Sf9 insect cells (baculovirus, pAcG3X), membrane fraction
# T1 sequence (Q1ACB3 70-386): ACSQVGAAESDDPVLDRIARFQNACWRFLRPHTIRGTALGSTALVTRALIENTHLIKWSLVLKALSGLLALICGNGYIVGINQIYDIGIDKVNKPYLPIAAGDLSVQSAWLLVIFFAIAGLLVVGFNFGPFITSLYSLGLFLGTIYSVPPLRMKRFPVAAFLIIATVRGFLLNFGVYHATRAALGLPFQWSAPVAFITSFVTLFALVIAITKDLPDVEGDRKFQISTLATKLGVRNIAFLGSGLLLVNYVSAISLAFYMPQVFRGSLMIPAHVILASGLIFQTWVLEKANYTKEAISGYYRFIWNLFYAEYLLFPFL
compound,measurement,setting,value
C#Cn1c(=O)c(-c2c(F)ccc(F)c2Cl)c(O)c2nccnc21 [Compound 2.18],"% control score, Obs","weeds [1]; BRAPL, 15.625 g/ha alone",5%
same,"% control score, Obs","weeds [1]; BRAPL, 62.5 g/ha alone",60%
same,"% control score, Obs","weeds [1]; BRAPL, 250 g/ha alone",80%
same,"% control score, Obs","weeds [1]; DIGSA, 15.625 g/ha alone",1%
same,"% control score, Obs","weeds [1]; DIGSA, 62.5 g/ha alone",30%
same,"% control score, Obs","weeds [1]; DIGSA, 250 g/ha alone",50%
same,"% control score, Obs","weeds [1]; ECHCG, 15.625 g/ha alone",2%
same,"% control score, Obs","weeds [1]; ECHCG, 62.5 g/ha alone",40%
same,"% control score, Obs","weeds [1]; ECHCG, 250 g/ha alone",70%
same,"% control score, Obs","weeds [1]; PANMI, 15.625 g/ha alone",10%
same,"% control score, Obs","weeds [1]; PANMI, 62.5 g/ha alone",65%
same,"% control score, Obs","weeds [1]; PANMI, 250 g/ha alone",70%
same,"% control score, Obs","weeds [1]; SETFA, 15.625 g/ha alone",10%
same,"% control score, Obs","weeds [1]; SETFA, 62.5 g/ha alone",60%
same,"% control score, Obs","weeds [1]; SETFA, 250 g/ha alone",85%
same,"% control score, Obs","weeds [1]; SIDSP, 15.625 g/ha alone",15%
same,"% control score, Obs","weeds [1]; SIDSP, 62.5 g/ha alone",60%
same,"% control score, Obs","weeds [1]; SIDSP, 250 g/ha alone",70%
same,"BRAPL Obs, % control score","weeds [2]; BRAPL, HST inhibitor rate 15.625 g/ha",0%
same,"BRAPL Obs, % control score","weeds [2]; BRAPL, HST inhibitor rate 62.5 g/ha",10%
same,"BRAPL Obs, % control score","weeds [2]; BRAPL, HST inhibitor rate 250 g/ha",40%
same,"DIGSA Obs, % control score","weeds [2]; DIGSA, HST inhibitor rate 15.625 g/ha",0%
same,"DIGSA Obs, % control score","weeds [2]; DIGSA, HST inhibitor rate 62.5 g/ha",0%
same,"DIGSA Obs, % control score","weeds [2]; DIGSA, HST inhibitor rate 250 g/ha",0%
same,"ECHCG Obs, % control score","weeds [2]; ECHCG, HST inhibitor rate 15.625 g/ha",0%
same,"ECHCG Obs, % control score","weeds [2]; ECHCG, HST inhibitor rate 62.5 g/ha",20%
same,"ECHCG Obs, % control score","weeds [2]; ECHCG, HST inhibitor rate 250 g/ha",20%
same,"PANMI Obs, % control score","weeds [2]; PANMI, HST inhibitor rate 15.625 g/ha",0%
same,"PANMI Obs, % control score","weeds [2]; PANMI, HST inhibitor rate 62.5 g/ha",0%
same,"PANMI Obs, % control score","weeds [2]; PANMI, HST inhibitor rate 250 g/ha",50%
same,"SETFA Obs, % control score","weeds [2]; SETFA, HST inhibitor rate 15.625 g/ha",0%
same,"SETFA Obs, % control score","weeds [2]; SETFA, HST inhibitor rate 62.5 g/ha",20%
same,"SETFA Obs, % control score","weeds [2]; SETFA, HST inhibitor rate 250 g/ha",25%
same,"SIDSP Obs, % control score","weeds [2]; SIDSP, HST inhibitor rate 15.625 g/ha",0%
same,"SIDSP Obs, % control score","weeds [2]; SIDSP, HST inhibitor rate 62.5 g/ha",30%
same,"SIDSP Obs, % control score","weeds [2]; SIDSP, HST inhibitor rate 250 g/ha",30%
same,Estimated IC50 (ppm),Arabidopsis HST,6 ppm
O=S1(=O)C(c2ccc(Br)cc2C(F)(F)F)=C(O)c2nccnc2N1CC(F)F [Compound 3.5],pest or weed control at 15.625 g/ha,"weeds [1]; BRAPL, 15.625 g/ha alone",2%
same,pest or weed control at 62.5 g/ha,"weeds [1]; BRAPL, 62.5 g/ha alone",30%
same,pest or weed control at 250 g/ha,"weeds [1]; BRAPL, 250 g/ha alone",65%
same,pest or weed control at 15.625 g/ha,"weeds [1]; PANMI, 15.625 g/ha alone",5%
same,pest or weed control at 62.5 g/ha,"weeds [1]; PANMI, 62.5 g/ha alone",15%
same,pest or weed control at 250 g/ha,"weeds [1]; PANMI, 250 g/ha alone",70%
same,pest or weed control at 15.625 g/ha,"weeds [1]; SIDSP, 15.625 g/ha alone",2%
same,pest or weed control at 62.5 g/ha,"weeds [1]; SIDSP, 62.5 g/ha alone",10%
same,pest or weed control at 250 g/ha,"weeds [1]; SIDSP, 250 g/ha alone",10%
same,pest or weed control at 15.625 g/ha,"weeds [1]; Digitaria sanguinalis, DIGSA, 15.625 g/ha alone",0%
same,pest or weed control at 62.5 g/ha,"weeds [1]; Digitaria sanguinalis, DIGSA, 62.5 g/ha alone",0%
same,pest or weed control at 250 g/ha,"weeds [1]; Digitaria sanguinalis, DIGSA, 250 g/ha alone",5%
same,pest or weed control at 15.625 g/ha,"weeds [1]; Echinochloa crus-galli, ECHCG, 15.625 g/ha alone",5%
same,pest or weed control at 62.5 g/ha,"weeds [1]; Echinochloa crus-galli, ECHCG, 62.5 g/ha alone",15%
same,pest or weed control at 250 g/ha,"weeds [1]; Echinochloa crus-galli, ECHCG, 250 g/ha alone",30%
same,pest or weed control at 15.625 g/ha,"weeds [1]; Setaria faberi, SETFA, 15.625 g/ha alone",2%
same,pest or weed control at 62.5 g/ha,"weeds [1]; Setaria faberi, SETFA, 62.5 g/ha alone",10%
same,pest or weed control at 250 g/ha,"weeds [1]; Setaria faberi, SETFA, 250 g/ha alone",40%
same,pest or weed control at 15.625 g/ha,"weeds [2]; BRAPL, HST inhibitor rate 15.625 g/ha, read-out: BRAPL Obs, % control score",0%
same,pest or weed control at 62.5 g/ha,"weeds [2]; BRAPL, HST inhibitor rate 62.5 g/ha, read-out: BRAPL Obs, % control score",0%
same,pest or weed control at 250 g/ha,"weeds [2]; BRAPL, HST inhibitor rate 250 g/ha, read-out: BRAPL Obs, % control score",0%
same,pest or weed control at 15.625 g/ha,"weeds [2]; PANMI, HST inhibitor rate 15.625 g/ha, read-out: PANMI Obs, % control score",0%
same,pest or weed control at 62.5 g/ha,"weeds [2]; PANMI, HST inhibitor rate 62.5 g/ha, read-out: PANMI Obs, % control score",0%
same,pest or weed control at 250 g/ha,"weeds [2]; PANMI, HST inhibitor rate 250 g/ha, read-out: PANMI Obs, % control score",0%
same,pest or weed control at 15.625 g/ha,"weeds [2]; SIDSP, HST inhibitor rate 15.625 g/ha, read-out: SIDSP Obs, % control score",0%
same,pest or weed control at 62.5 g/ha,"weeds [2]; SIDSP, HST inhibitor rate 62.5 g/ha, read-out: SIDSP Obs, % control score",0%
same,pest or weed control at 250 g/ha,"weeds [2]; SIDSP, HST inhibitor rate 250 g/ha, read-out: SIDSP Obs, % control score",2%
same,pest or weed control at 15.625 g/ha,"weeds [2]; Digitaria sanguinalis, DIGSA, HST inhibitor rate 15.625 g/ha, read-out: DIGSA Obs, % control score",0%
same,pest or weed control at 62.5 g/ha,"weeds [2]; Digitaria sanguinalis, DIGSA, HST inhibitor rate 62.5 g/ha, read-out: DIGSA Obs, % control score",0%
same,pest or weed control at 250 g/ha,"weeds [2]; Digitaria sanguinalis, DIGSA, HST inhibitor rate 250 g/ha, read-out: DIGSA Obs, % control score",0%
same,pest or weed control at 15.625 g/ha,"weeds [2]; Echinochloa crus-galli, ECHCG, HST inhibitor rate 15.625 g/ha, read-out: ECHCG Obs, % control score",0%
same,pest or weed control at 62.5 g/ha,"weeds [2]; Echinochloa crus-galli, ECHCG, HST inhibitor rate 62.5 g/ha, read-out: ECHCG Obs, % control score",0%
same,pest or weed control at 250 g/ha,"weeds [2]; Echinochloa crus-galli, ECHCG, HST inhibitor rate 250 g/ha, read-out: ECHCG Obs, % control score",0%
same,pest or weed control at 15.625 g/ha,"weeds [2]; Setaria faberi, SETFA, HST inhibitor rate 15.625 g/ha, read-out: SETFA Obs, % control score",0%
same,pest or weed control at 62.5 g/ha,"weeds [2]; Setaria faberi, SETFA, HST inhibitor rate 62.5 g/ha, read-out: SETFA Obs, % control score",0%
same,pest or weed control at 250 g/ha,"weeds [2]; Setaria faberi, SETFA, HST inhibitor rate 250 g/ha, read-out: SETFA Obs, % control score",0%
same,Estimated IC50 (ppm),Arabidopsis HST,42 ppm
